Test results: patent publication US20250122183A1 (Pfizer Inc., priority 2023, published 2025)

What was measured:
Assay type in all cases: biochemical
[1] = biological target: KAT5 Full length enzyme (Homo sapiens (Human), UniProt Q92993); experiment: KAT5 assay (SAMDI-MS acetylation of H4 1-21 peptide); settings: Morrison equation fit; replicate number in parentheses; read-out: KAT5 Ki (nM) (replicate number)
[2] = biological target: KAT6A Full length enzyme (Homo sapiens (Human), UniProt Q92794); experiment: KAT6A assay (SAMDI-MS acetylation of H3 1-21 peptide); settings: Morrison equation fit; replicate number in parentheses; read-out: KAT6A Ki (nM) (replicate number)
[3] = biological target: KAT8 Full length enzyme (Homo sapiens (Human), UniProt Q9H7Z6); experiment: KAT8 assay (SAMDI-MS acetylation of H3 1-21 peptide); settings: Morrison equation fit; replicate number in parentheses; read-out: KAT8 Ki (nM) (replicate number)
[4] = biological target: KAT7+JADE1+EAF6+ING5 4 protein complex (Homo sapiens (Human), UniProt O95251); experiment: KAT7 JADE1 assay (SAMDI-MS acetylation of H3 1-21 peptide); settings: Morrison equation fit; replicate number in parentheses; read-out: KAT7 JADE1 Ki (nM) (replicate number)

KAT5 Full length enzyme, sequence (Q92993 whole entry): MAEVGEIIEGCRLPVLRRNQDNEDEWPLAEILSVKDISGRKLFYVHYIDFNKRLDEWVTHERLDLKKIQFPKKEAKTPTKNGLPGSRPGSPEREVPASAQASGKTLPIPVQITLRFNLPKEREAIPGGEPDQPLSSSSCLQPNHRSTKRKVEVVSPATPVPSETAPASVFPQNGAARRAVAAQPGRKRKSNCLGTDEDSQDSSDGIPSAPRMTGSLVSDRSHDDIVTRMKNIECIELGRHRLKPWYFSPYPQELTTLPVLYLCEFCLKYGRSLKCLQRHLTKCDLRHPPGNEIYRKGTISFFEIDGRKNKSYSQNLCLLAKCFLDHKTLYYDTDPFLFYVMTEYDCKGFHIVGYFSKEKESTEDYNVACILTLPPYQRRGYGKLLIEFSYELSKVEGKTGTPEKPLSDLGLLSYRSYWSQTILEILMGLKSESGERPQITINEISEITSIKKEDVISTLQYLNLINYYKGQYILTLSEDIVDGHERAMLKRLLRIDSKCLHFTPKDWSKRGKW
KAT8 Full length enzyme, sequence (Q9H7Z6 whole entry): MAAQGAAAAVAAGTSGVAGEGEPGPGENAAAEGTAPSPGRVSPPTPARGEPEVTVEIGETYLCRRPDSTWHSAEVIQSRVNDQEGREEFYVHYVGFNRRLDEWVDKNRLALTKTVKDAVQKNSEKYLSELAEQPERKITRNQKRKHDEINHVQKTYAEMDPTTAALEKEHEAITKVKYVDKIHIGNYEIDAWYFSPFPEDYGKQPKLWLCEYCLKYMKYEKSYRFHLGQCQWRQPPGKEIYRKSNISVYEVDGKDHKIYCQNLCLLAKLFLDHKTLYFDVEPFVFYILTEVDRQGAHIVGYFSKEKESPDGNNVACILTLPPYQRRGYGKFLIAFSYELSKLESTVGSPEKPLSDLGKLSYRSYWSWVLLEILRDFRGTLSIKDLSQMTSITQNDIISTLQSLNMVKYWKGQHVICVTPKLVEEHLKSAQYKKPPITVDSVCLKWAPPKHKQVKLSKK
KAT6A Full length enzyme, sequence (Q92794 other isoform, or with tags, fused parts or gaps): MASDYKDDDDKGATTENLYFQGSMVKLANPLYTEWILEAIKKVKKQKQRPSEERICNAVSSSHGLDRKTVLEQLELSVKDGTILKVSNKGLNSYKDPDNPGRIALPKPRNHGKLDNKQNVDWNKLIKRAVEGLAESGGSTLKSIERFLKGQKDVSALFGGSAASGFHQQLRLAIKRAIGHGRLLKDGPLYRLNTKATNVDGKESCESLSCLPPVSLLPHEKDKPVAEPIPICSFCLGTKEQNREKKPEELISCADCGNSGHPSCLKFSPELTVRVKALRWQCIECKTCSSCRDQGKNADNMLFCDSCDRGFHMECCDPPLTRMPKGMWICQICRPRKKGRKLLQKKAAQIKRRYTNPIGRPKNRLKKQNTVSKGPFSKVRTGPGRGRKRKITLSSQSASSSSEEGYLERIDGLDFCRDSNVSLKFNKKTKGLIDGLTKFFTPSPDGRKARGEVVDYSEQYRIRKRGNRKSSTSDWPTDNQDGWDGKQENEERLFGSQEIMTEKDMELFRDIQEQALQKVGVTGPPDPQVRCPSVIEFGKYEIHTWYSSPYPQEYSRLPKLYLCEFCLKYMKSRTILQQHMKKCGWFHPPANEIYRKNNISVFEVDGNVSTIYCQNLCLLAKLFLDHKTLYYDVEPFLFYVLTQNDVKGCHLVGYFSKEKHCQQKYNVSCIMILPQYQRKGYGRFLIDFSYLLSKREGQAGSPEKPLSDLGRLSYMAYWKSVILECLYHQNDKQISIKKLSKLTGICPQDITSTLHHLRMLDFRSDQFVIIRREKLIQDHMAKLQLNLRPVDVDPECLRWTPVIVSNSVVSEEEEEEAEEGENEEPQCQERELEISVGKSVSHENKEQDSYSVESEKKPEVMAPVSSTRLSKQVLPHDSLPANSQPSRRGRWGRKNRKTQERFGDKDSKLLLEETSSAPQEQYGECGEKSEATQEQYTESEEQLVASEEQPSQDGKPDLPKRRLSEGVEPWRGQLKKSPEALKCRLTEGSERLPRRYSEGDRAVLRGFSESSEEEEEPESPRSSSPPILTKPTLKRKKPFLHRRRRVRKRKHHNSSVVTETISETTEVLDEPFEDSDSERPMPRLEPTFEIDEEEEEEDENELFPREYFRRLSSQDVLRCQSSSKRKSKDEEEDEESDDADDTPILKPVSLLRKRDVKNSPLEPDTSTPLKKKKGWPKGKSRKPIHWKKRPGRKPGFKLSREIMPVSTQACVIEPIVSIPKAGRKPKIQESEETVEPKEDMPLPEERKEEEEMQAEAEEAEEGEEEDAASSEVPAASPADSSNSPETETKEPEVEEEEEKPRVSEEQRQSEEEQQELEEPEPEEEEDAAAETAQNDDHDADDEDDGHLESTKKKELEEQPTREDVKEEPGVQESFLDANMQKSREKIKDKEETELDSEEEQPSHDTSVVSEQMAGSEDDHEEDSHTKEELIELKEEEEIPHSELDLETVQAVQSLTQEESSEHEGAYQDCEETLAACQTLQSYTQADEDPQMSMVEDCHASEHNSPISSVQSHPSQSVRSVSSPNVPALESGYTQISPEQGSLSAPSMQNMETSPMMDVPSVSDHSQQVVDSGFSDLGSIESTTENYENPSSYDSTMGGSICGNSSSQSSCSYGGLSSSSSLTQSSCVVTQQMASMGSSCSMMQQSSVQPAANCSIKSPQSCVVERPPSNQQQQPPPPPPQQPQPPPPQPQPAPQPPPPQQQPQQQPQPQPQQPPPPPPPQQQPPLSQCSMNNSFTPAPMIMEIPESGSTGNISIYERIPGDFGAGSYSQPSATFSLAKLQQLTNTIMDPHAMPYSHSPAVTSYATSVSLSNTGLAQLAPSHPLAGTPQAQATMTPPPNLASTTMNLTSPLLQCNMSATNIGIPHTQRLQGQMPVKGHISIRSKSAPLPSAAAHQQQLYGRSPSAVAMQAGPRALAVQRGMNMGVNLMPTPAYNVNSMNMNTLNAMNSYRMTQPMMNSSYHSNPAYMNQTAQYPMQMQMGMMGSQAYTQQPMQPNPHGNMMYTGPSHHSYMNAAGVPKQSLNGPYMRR

| Structure (SMILES) | Ki [1] | Ki [2] | Ki [3] | Ki [4] |
| --- | --- | --- | --- | --- |
| COc1cc2c(NS(=O)(=O)c3c(OC)cccc3OC)noc2cc1Nc1cc(C(F)F)n[nH]1 [Example 115, N-(6-{[3-(difluoromethyl)-1H-pyrazol-5-yl]amino}-5-methoxy-1,2-benzoxazol-3-yl)-2,6-dimethoxybenzene-1-sulfonamide] | 101 nM | 0.1 nM | 8920 nM | 32.2 nM |
| COc1cc2c(NS(=O)(=O)c3c(OC)cccc3OC)noc2cc1Nc1cc(C(C)(C)C)n[nH]1 [Example 116, N-{6-[(3-tert-butyl-1H-pyrazol-5-yl)amino]-5-methoxy-1,2-benzoxazol-3-yl}-2,6-dimethoxybenzene-1-sulfonamide] | 546 nM | 11.8 nM | 7900 nM | 98 nM |
| COc1cc2c(NS(=O)(=O)c3c(OC)cccc3OC)noc2cc1Nc1cc(C2CC(F)(F)C2)[nH]n1 [Example 117, N-(6-{[5-(3,3-difluorocyclobutyl)-1H-pyrazol-3-yl]amino}-5-methoxy-1,2-benzoxazol-3-yl)-2,6-dimethoxybenzene-1-sulfonamide] | 360 nM | 5.3 nM | 10000 nM | 25.1 nM |
| COc1cc2c(NS(=O)(=O)c3c(OC)cc(-c4ccccn4)cc3OC)noc2cc1Nc1cc(C2CC2)n[nH]1 [Example 118, N-{6-[(3-cyclopropyl-1H-pyrazol-5-yl)amino]-5-methoxy-1,2-benzoxazol-3-yl}-2,6-dimethoxy-4-(pyridin-2-yl)benzene-1-sulfonamide] | 66.1 nM | 0.9 nM | 731 nM | 8.1 nM |
| COc1cc2c(NS(=O)(=O)c3c(OC)cc(-c4ccccc4)cc3OC)noc2cc1Nc1cc(C2CC2)n[nH]1 [Example 119, N-{6-[(3-cyclopropyl-1H-pyrazol-5-yl)amino]-5-methoxy-1,2-benzoxazol-3-yl}-3,5-dimethoxy[1,1′-biphenyl]-4-sulfonamide] | 19.4 nM | 0.2 nM | 156 nM | 3.6 nM |
| COc1cc2c(NS(=O)(=O)c3c(OC)cc(-c4ccncc4)cc3OC)noc2cc1Nc1cc(C2CC2)n[nH]1 [Example 120, N-{6-[(3-cyclopropyl-1H-pyrazol-5-yl)amino]-5-methoxy-1,2-benzoxazol-3-yl}-2,6-dimethoxy-4-(pyridin-4-yl)benzene-1-sulfonamide] | 236 nM | 0.8 nM | 640 nM | 10.8 nM |
| COc1cc2c(NS(=O)(=O)c3c(OC)cc(-c4cnn(C)c4)cc3OC)noc2cc1Nc1cc(C2CC2)n[nH]1 [Example 123, N-{6-[(3-cyclopropyl-1H-pyrazol-5-yl)amino]-5-methoxy-1,2-benzoxazol-3-yl}-2,6-dimethoxy-4-(1-methyl-1H-pyrazol-4-yl)benzene-1-sulfonamide] | 246 nM | 0.8 nM | 189 nM | 10.4 nM |
| CCc1cc(Nc2cc3onc(NS(=O)(=O)c4ccc(C(F)(F)F)cc4Cl)c3cc2OC)n[nH]1 [Example 124, 2-chloro-N-{6-[(5-ethyl-1H-pyrazol-3-yl)amino]-5-methoxy-1,2-benzoxazol-3-yl}-4-(trifluoromethyl)benzene-1-sulfonamide] | 4570 nM | 51.3 nM | 8220 nM | 47.9 nM |
| CCc1cc(Nc2cc3onc(NS(=O)(=O)c4cccc(Oc5ccccc5C)c4)c3cc2OC)n[nH]1 [Example 125, N-{6-[(5-ethyl-1 H-pyrazol-3-yl)amino]-5-methoxy-1,2-benzoxazol-3-yl}-3-(2-methylphenoxy)benzene-1-sulfonamide] | 5090 nM | 48.6 nM | > 13000 nM | 180 nM |
| CCc1cc(Nc2cc3onc(NS(=O)(=O)c4cccc(Oc5ccc(C)cc5)c4)c3cc2OC)n[nH]1 [Example 126, N-{6-[(5-ethyl-1 H-pyrazol-3-yl)amino]-5-methoxy-1,2-benzoxazol-3-yl}-3-(4-methylphenoxy)benzene-1-sulfonamide] | 5040 nM | 52.1 nM | > 13000 nM | 237 nM |
| CCCc1ccc(S(=O)(=O)Nc2noc3cc(Nc4cc(CC)[nH]n4)c(OC)cc23)cc1 [Example 127, N-{6-[(5-ethyl-1 H-pyrazol-3-yl)amino]-5-methoxy-1,2-benzoxazol-3-yl}-4-propylbenzene-1-sulfonamide] | 3940 nM | 32.8 nM | > 13000 nM | 175 nM |
| CCc1cc(Nc2cc3onc(NS(=O)(=O)c4cccc(Oc5ccc(F)cc5)c4)c3cc2OC)n[nH]1 [Example 128, N-{6-[(5-ethyl-1 H-pyrazol-3-yl)amino]-5-methoxy-1,2-benzoxazol-3-yl}-3-(4-fluorophenoxy)benzene-1-sulfonamide] | 7830 nM | 38.1 nM | > 13000 nM | 212 nM |
| CCc1cc(Nc2cc3onc(NS(=O)(=O)c4ccc5c(c4)OCCO5)c3cc2OC)n[nH]1 [Example 129, N-{6-[(5-ethyl-1 H-pyrazol-3-yl)amino]-5-methoxy-1,2-benzoxazol-3-yl}-2,3-dihydro-1,4-benzodioxine-6-sulfonamide] | 5630 nM | 56.8 nM | > 13000 nM | 244 nM |
| CCc1cc(Nc2cc3onc(NS(=O)(=O)c4ccc(-c5ccccc5)cc4)c3cc2OC)n[nH]1 [Example 130, N-{6-[(5-ethyl-1 H-pyrazol-3-yl)amino]-5-methoxy-1,2-benzoxazol-3-yl}[1,1′-biphenyl]-4-sulfonamide] | 2010 nM | 13 nM | 7520 nM | 85.2 nM |
| CCc1cc(Nc2cc3onc(NS(=O)(=O)c4ccc(Oc5ccccc5)cc4)c3cc2OC)n[nH]1 [Example 132, N-{6-[(5-ethyl-1 H-pyrazol-3-yl)amino]-5-methoxy-1,2-benzoxazol-3-yl}-4-phenoxybenzene-1-sulfonamide] | 5520 nM | 82.7 nM | > 13000 nM | 410 nM |
| CCc1cc(Nc2cc3onc(NS(=O)(=O)c4ccc(OC)c(F)c4)c3cc2OC)n[nH]1 [Example 133, N-{6-[(5-ethyl-1 H-pyrazol-3-yl)amino]-5-methoxy-1,2-benzoxazol-3-yl}-3-fluoro-4-methoxybenzene-1-sulfonamide] | 6210 nM | 78.7 nM | > 13000 nM | 321 nM |
| CCc1cc(Nc2cc3onc(NS(=O)(=O)c4cc(Cl)ccc4Cl)c3cc2OC)n[nH]1 [Example 134, 2,5-dichloro-N-{6-[(5-ethyl-1 H-pyrazol-3-yl)amino]-5-methoxy-1,2-benzoxazol-3-yl}benzene-1-sulfonamide] | 4550 nM | 34.3 nM | 9800 nM | 185 nM |
| CCc1cc(Nc2cc3onc(NS(=O)(=O)c4cc(F)ccc4Br)c3cc2OC)n[nH]1 [Example 135, 2-bromo-N-{6-[(5-ethyl-1H-pyrazol-3-yl)amino]-5-methoxy-1,2-benzoxazol-3-yl}-5-fluorobenzene-1-sulfonamide] | 3080 nM | 52.6 nM | > 13000 nM | 156 nM |
| CCc1ccc(S(=O)(=O)Nc2noc3cc(Nc4cc(CC)[nH]n4)c(OC)cc23)cc1 [Example 136, 4-ethyl-N-{6-[(5-ethyl-1 H-pyrazol-3-yl)amino]-5-methoxy-1,2-benzoxazol-3-yl}benzene-1-sulfonamide] | 2940 nM | 16.3 nM | > 13000 nM | 92.7 nM |
| CCc1cc(Nc2cc3onc(NS(=O)(=O)c4cccc(-c5ccc(OC)cc5)c4)c3cc2OC)[nH]n1 [Example 137, N-{6-[(3-ethyl-1 H-pyrazol-5-yl)amino]-5-methoxy-1,2-benzoxazol-3-yl}-4′-methoxy[1,1′-biphenyl]-3-sulfonamide] | 1650 nM | 12.9 nM | > 13000 nM | 9.7 nM |
| COc1cc2c(NS(=O)(=O)c3c(OC)cc([C@@H]4CCCO4)cc3OC)noc2cc1Nc1cc(C2CC2)n[nH]1 [Example 140, N-{6-[(3-cyclopropyl-1H-pyrazol-5-yl)amino]-5-methoxy-1,2-benzoxazol-3-yl}-2,6-dimethoxy-4-[(2S)-oxolan-2-yl]benzene-1-sulfonamide] | 156 nM | 1.5 nM | 911 nM | 11.4 nM |
| COc1cc2c(NS(=O)(=O)c3c(OC)cc([C@H]4CCCO4)cc3OC)noc2cc1Nc1cc(C2CC2)n[nH]1 [Example 141, N-{6-[(3-cyclopropyl-1 H-pyrazol-5-yl)amino]-5-methoxy-1,2-benzoxazol-3-yl}-2,6-dimethoxy-4-[(2R)-oxolan-2-yl]benzene-1-sulfonamide] | 134 nM | 1 nM | 762 nM | 6.9 nM |
| COc1cc2c(NS(=O)(=O)c3c(OC)cc(CN4CC(F)C4)cc3OC)noc2cc1Nc1cc(C2CC2)n[nH]1 [Example 202, N-{6-[(3-cyclopropyl-1H-pyrazol-5-yl)amino]-5-methoxy-1,2-benzoxazol-3-yl}-4-[(3-fluoroazetidin-1-yl)methyl]-2,6-dimethoxybenzene-1-sulfonamide] | 25.4 nM | 0.7 nM | 844 nM | 5.2 nM |
| COc1cc2c(NS(=O)(=O)c3c(OC)cc(-c4ncccn4)cc3OC)noc2cc1Nc1cc(C2CC2)n[nH]1 [Example 211, N-{6-[(3-cyclopropyl-1 H-pyrazol-5-yl)amino]-5-methoxy-1,2-benzoxazol-3-yl}-2,6-dimethoxy-4-(pyrimidin-2-yl)benzene-1-sulfonamide] | 89.4 nM | 1.1 nM | 1350 nM | 3.7 nM |
